Reference: the Kinase Knowledgebase extract (Sharma et al. 2016)

How the values were obtained:
[1] = target: EGFR (UniProt P00533)
[2] = target: EGFR (human) (UniProt P00533); settings: A431
[3] = target: EGFR (human) (UniProt P00533); settings: kb
[4] = target: MAPK14 (UniProt Q16539); experiment: MAPK Inhibition
[5] = tested on: MAPK14 (rat); experiment: MAPK Inhibiton (TNF Stimulated); settings: iec-6, dose or concentration not given here
[6] = target: CDK2 (UniProt P24941); experiment: Enzyme Assay; settings: concentration not given here
[7] = target: EGFR (human) (UniProt P00533); settings: mda-mb-468
[8] = tested on: MAPK14 (sprague-dawley rat); experiment: p38 Activation; settings: myocytes
[9] = target: EGFR (human) (UniProt P00533); settings: lox-imvi,malme-3m,sk-mel-5
[10] = target: EGFR (human) (UniProt P00533); settings: a431
[11] = target: EGFR (human) (UniProt P00533)
[12] = target: EGFR (human) (UniProt P00533); remark: listed apart in the source
[13] = target: EGFR (human) (UniProt P00533); settings: ovcar-8,sk-ov-3,ovcar-5,ovcar-4
[14] = target: EGFR (UniProt P00533); remark: listed apart in the source
[15] = target: EGFR (UniProt P00533); settings: concentration not given here
[16] = target: EGFR (UniProt P00533); settings: concentration not given here; remark: listed apart in the source
[17] = tested on: MAPK14 (murine); experiment: TNF-alpha Inhibition (In vivo Studies)
[18] = target: EGFR (murine) (UniProt P00533); settings: nih3t3
[19] = target: EGFR (UniProt P00533); remark: listed apart in the source
[20] = target: EGFR (UniProt P00533); remark: listed apart in the source
[21] = target: EGFR (UniProt P00533); remark: listed apart in the source
[22] = target: EGFR (UniProt P00533); remark: listed apart in the source
[23] = tested on: MAPK14 (murine); experiment: p38 Kinase Inhibition (ATF-2 / L1210/VCR Cells); settings: dose or concentration not given here
[24] = tested on: MAPK14 (murine); experiment: p38 Kinase Inhibition (MAPKAPK2 / L1210/VCR Cells); settings: dose or concentration not given here
[25] = target: CDK2 (UniProt P24941)
[26] = target: EGFR (UniProt P00533); remark: listed apart in the source
[27] = target: EGFR (UniProt P00533); remark: listed apart in the source
[28] = target: EGFR (UniProt P00533); remark: listed apart in the source

EGFR (human), sequence (P00533 whole entry, looked up): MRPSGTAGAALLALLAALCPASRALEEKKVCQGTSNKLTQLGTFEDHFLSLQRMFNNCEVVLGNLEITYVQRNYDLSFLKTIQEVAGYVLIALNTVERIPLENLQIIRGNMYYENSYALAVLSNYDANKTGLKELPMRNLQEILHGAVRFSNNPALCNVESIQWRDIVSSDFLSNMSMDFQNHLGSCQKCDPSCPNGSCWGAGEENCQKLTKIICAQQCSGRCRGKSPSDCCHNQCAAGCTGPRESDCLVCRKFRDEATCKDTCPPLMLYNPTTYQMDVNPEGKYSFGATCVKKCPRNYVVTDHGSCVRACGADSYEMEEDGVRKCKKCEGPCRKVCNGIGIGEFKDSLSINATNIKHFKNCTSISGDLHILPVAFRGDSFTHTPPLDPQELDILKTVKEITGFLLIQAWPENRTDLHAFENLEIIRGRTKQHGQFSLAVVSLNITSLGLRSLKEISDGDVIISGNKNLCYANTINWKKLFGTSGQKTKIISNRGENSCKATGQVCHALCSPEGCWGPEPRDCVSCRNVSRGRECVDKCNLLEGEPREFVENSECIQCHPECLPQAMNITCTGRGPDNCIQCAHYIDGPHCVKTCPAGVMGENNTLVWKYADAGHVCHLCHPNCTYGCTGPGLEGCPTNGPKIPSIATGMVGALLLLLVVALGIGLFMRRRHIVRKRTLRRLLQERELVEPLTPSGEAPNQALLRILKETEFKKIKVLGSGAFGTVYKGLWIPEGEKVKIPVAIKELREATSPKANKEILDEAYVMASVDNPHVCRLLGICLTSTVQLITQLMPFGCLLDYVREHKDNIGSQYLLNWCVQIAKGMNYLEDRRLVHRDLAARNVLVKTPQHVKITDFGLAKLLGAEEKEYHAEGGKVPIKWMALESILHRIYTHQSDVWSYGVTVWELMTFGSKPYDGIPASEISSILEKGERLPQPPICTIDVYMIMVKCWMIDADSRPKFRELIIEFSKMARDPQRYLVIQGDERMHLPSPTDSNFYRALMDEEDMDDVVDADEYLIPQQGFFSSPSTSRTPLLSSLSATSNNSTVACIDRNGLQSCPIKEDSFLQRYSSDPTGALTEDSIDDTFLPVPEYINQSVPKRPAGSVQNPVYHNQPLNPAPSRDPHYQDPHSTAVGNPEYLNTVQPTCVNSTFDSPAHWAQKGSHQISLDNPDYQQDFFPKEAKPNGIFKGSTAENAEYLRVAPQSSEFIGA
EGFR, sequence (P00533 whole entry, looked up): as above
EGFR (murine), sequence (P00533 whole entry, looked up): as above
MAPK14, sequence (Q16539 whole entry, looked up): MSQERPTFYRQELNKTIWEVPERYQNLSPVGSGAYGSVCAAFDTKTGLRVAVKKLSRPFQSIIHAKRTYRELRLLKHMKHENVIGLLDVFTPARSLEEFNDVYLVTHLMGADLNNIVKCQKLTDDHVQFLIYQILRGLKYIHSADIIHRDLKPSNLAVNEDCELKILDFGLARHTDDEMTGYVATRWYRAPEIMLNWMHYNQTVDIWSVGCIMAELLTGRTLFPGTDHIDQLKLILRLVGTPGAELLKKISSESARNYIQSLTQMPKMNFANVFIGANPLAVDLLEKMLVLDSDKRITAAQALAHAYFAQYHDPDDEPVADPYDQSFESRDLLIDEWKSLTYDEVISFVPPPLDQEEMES

Compound: O=[N+]([O-])c1cccc(Cl)c1-c1nc(-c2ccncc2)c(-c2ccc(Cl)cc2)[nH]1
- IC50 [1]: 290 nM

Compound: N#C/C(=C\c1ccc2c(c1)OCO2)c1ccccn1
- IC50 [2]: 1000 nM

Compound: Fc1ccc(Nc2ncnc3cnc(NN4CCOCC4)nc23)cc1Cl
- IC50 [3]: 100 nM

Compound: COc1cccc(-c2cc(=O)c3ccccc3o2)c1N
- IC50 [4]: 2000 nM
- activity [5]: 111%
- activity [6]: 95%

Compound: C=C1CC(C)OC(=O)c2c(O)cc(OC)cc2C(=C)C(=C)CC(O)C(O)C(=O)C1=C (stereo not drawn)
- IC50 [7]: > 30000 nM

Compound: COc1ccc(C[C@H]2NC[C@H](O)[C@H]2OC(C)=O)cc1
- activation [8]: 6.2

Compound: CNc1cc2ncnc(Nc3cccc(Br)c3)c2cc1N
- IC50 [9]: 1000 to 10000 nM
- IC50 [10]: 39.8 to 1580 nM
- IC50 [11]: 0.57 to 1.9 nM
- IC50 [12]: 1000 to 4360 nM
- IC50 [13]: 8.32 to 6920 nM

Compound: C[C@@]12CCC(=O)c3coc(c31)C(=O)c1cc3c(cc12)C(=O)C=CC3=O
- IC50 [14]: 19000 nM

Compound: Nc1ncc2cc(-c3c(Cl)cccc3Cl)c(NC(=S)NCCCN3CCOCC3)nc2n1
- inhibition [15]: 105%

Compound: COc1cccc2sc3c(Nc4cccc(Br)c4)ncnc3c12
- inhibition [16]: 36%

Compound: Cc1nccc(-c2c(-c3ccc(F)cc3)ncn2C2CCCCC2)n1
- ED50 [17]: 7.5 mg/kg

Compound: CC(C)(C)c1cc(/C=C(\C#N)S(=O)(=O)Cc2cccc(C(F)(F)F)c2)cc(C(C)(C)C)c1O
- IC50 [18]: > 100000 nM

Compound: C/C=C/C(=O)Nc1ccc2c(Nc3cccc(Br)c3)ncnc2c1
- IC50 [19]: 0.68 nM

Compound: Clc1cccc(Nc2ncnc3ccccc23)c1
- Ki [20]: 16 to 32 nM
- Ki [21]: 16 to 32 nM
- IC50 [22]: 75 nM

Compound: CC[C@]1(O)C[C@@H]2CN(CCc3c([nH]c4ccccc34)[C@@](C(=O)OC)(c3cc4c(cc3OC)N(C=O)[C@H]3[C@@](O)(C(=O)OC)[C@H](OC(C)=O)[C@]5(CC)C=CCN6CC[C@]43C65)C2)C1 (stereo partly drawn)
- activity [23]: 53.3%
- activity [24]: 120%

Compound: CC(C)=CCNc1ncnc2[nH]cnc12
- IC50 [25]: 50000 nM

Compound: CN(C)C[C@H]1CCn2c(c(C3=C(c4cn(C)c5ccccc45)C(=O)NC3=O)c3ccccc32)C1
- IC50 [26]: > 100000 nM

Compound: COc1cccc(-c2cn(-c3ccc(CCN(C)CCO)cc3)c3ncncc23)c1
- IC50 [27]: 10000 nM
- IC50 [28]: 300 nM
